Measurements as given in patent US20200123127A1, “REMOVAL OF SENESCENCE-ASSOCIATED MACROPHAGES” (EVERON BIOSCIENCES, INC., priority 2016, published 2020).
Entries after “also recorded” stand apart in the source; their conditions may differ. Where two headings read alike, the source gives them in different places.

Columns and labels:
SAMs = test: SAM viability (CyQuant Direct / resazurin); assay type: cell-based, mouse; details: for SAM cell viability: 2.5 to 10 μM
Method: FIG. 8. Immunomodulatory regulation of p16(Ink4a) and SAβG in macrophages. Peritoneal lavage cells elicited by alginate-encapsulated SCs from p16^Ink4a/Luc mice were treated ex vivo with immunomodulatory agents for up to 72 hours. (A) mRNA expression of p16(Ink4a) and β-galactosidase (Glb1) in macrophages (relative to B2m expression) with or without LPS stimulation for 72 hours analyzed via qRT-PCR, normalized to non-treated controls. (B) Microphotograph of SAβG-stained adherence-selected macrophages with or without stimulation with LPS (1 ng/mL) for 72 hours (10× objective). (C&D) Kinetics of p16(Ink4a) promoter-dependent luciferase activity per cell with or without LPS stimulation (C) or IL-4 stimulation (D), normalized to activity from non-treated cells at time zero. Results are shown as the mean±standard deviation for at least 3 experiments. Statistical significance with respect to non-treated control at time zero is indicated. (E) Luciferase activity and (3-galactosidase activity (via 4-MUG hydrolysis) from proteose peptone-elicited lavage cells following stimulation with IL-4 (20 ng/mL) for 72 hours, normalized to non-treated controls. (F) Viability following 72 hour dose-response to JAK1/2 inhibitor Ruxolitinib in the presence or absence of IL-4 (10 ng/mL) stimulation, measured by CyQuant Direct DNA-based viability assay. Viability normalized to respective controls lacking Ruxolitinib. (G&H) Dose-response of STAT6 inhibitor AS1517499 against luciferase activity (G) and viability via CyQuant Direct assay (H) following 72 hour treatment in the presence and absence of IL-4 (10 ng/mL). Results normalized to respective controls (with or without IL-4) lacking STAT6 inhibitor. Statistical significance is calculated with respect to the difference between IL-4 stimulated and non-stimulated cells at each concentration of STAT6 inhibitor. (I) Relative luciferase activity per cell following repolarization with M1- and M2-inducing agents. Macrophages were left non-treated (NT) or treated with either LPS (1 ng/ml) or IL-4 (20 ng/ml) for 72 hours (days 1-3), as indicated. For each treatment set, samples were collected at 72 hours (no further treatment; days 4-6=x). Alternatively, cells were washed and placed in fresh medium (−), medium containing LPS (1 ng/mL) and IFN-γ (10 ng/mL), or medium containing IL-4 (20 ng/mL) and IL-13 (10 ng/mL) and incubated for an additional 72 hours prior to sample collection (as indicated for days 4-6). Luciferase activity is expressed as the percent activity per cell relative to non-treated (NT) controls after the first 72 hours.
FIG. 10. Elevated p16(Ink4a) and β-galactosidase is regulated by immunomodulatory agents in macrophages, but not in mesenchymal SCs. Primary cultures of adipose-derived mesenchymal stromal cells (AdMSC) isolated from p16^Ink4a/Luc mice were irradiated (20 Gy) and cultured for 10 days for senescence induction. Mock irradiated cells were used as a proliferating cell control. Response of senescent and proliferating AdMSCs to immunomodulatory agents were compared to that of peritoneal lavage cells elicited by our alginate bead model. A-D) Dose-response curves of LPS (top panels: […]) and Poly(I:C) (bottom panels: C&D) on p16(Ink4a) promoter-dependent luciferase activity (left panels: A&C) and beta-galactosidase activity measured via 4-MUG hydrolysis (right panels: B&D) after 72 hr treatment. […]
FIG. 13. […] SAM viability was determined using the resazurin cell viability assay (Res). […]

[1] = test system: p16(Ink4a) expression in adipose tissue macrophages; test: Poly(I:C) in chronologically aged p16Ink4a/Luc mice; assay type: in vivo, mouse
Method: Given that macrophages contribute to the elevated p16(Ink4a) expression observed in aged mice, we investigated whether this expression was susceptible to immunomodulatory regulation. Chronologically aged mice (83-weeks old) were treated with Poly(I:C) and the luminescence of individual organs was quantitated via IVIS. […] Thus, the observed decrease in the luciferase signal in adipose tissue upon treatment with Poly(I:C) was not accompanied by the depletion of macrophages.

[2] = test system: mLF primary lung fibroblasts; test: Anti-senescent cytotoxicity, senescent vs proliferating mLF; assay type: cell-based, Mouse; details: for IC50: Mus musculus, Primary lung fibroblast
Method: For generation senescent human neonatal dermal fibroblasts (NDFs) and adult rat dermal fibroblasts (RDFs), cells are treated at ˜10 ug/ml bleomycin for 3 days (for bleomycin-induced senescence) or irradiated once at 20 Gy using a gamma irradiator (Cs source), followed by at least 7 day recovery in fresh medium for induction of senescence. Senescent and non-senescent (proliferating) cells for each cell line are plated into 384-w plate, followed by 72 hour exposure to a dose titration of compounds. Viability measurements are estimated using the resazurin viability assay. Using GraphPad Prism 5, the IC50 values are calculated from the non-linear regression of log-transformed compound concentrations versus dose-response normalized to background and non-treated controls.
Anti-senescent selectivity is observed in primary human dermal fibroblasts (NDFs) induced to senescence via genotoxic stress, oxidative stress and replicative stress. In addition, human, rat and mouse cells senesced via bleomycin and irradiation all show sensitivity towards A1.1 treatment compared to A1.1-treated naïve cell controls.

[3] = test system: mSQ primary adipose-derived mesenchymal stromal cells; test: Anti-senescent cytotoxicity, senescent vs proliferating mSQ; assay type: cell-based, Mouse; details: for IC50: Mus musculus
[4] = test system: human neonatal dermal fibroblasts (NDF); test: Resazurin viability assay, senescent vs proliferating/quiescent human neonatal dermal fibroblasts; assay type: cell-based; details: for IC50: Homo sapiens, Fibroblast

`O=C(NCCCc1cn[nH]c1)c1ccc(-c2ccncc2)c(C#Cc2ccc(F)cc2)c1` [OT-82] was tested, and the “toxicity to SAMs in combination with inducers of the M1-phenotype (LPS and interferon-gamma)” value (SAMs; resazurin) was “toxic” and the “toxicity to SAMs, OT-82 by itself” value (SAMs; resazurin / CyQuant, 500 nM) was “low SAM toxicity; also recorded: almost non-toxic; also recorded: not toxic”.

With `COc1ccc(C2CC(=NO)c3c(SCc4ccccc4)sc(C(=O)NCc4cccc(F)c4)c3C2)cc1` (stereo not shown) [Example A1.6, 3-(Benzylthio)-N-(3-fluorobenzyl)-4-(hydroxyimino)-6-(4-methoxyphenyl)-4,5,6,7-tetrahydrobenzo[c]thiophene-1-carboxamide] the SAM cell viability (SAMs; resazurin / CyQuant, listed as TA-4812) was “no effect” and the SAM cell viability (SAMs; resazurin / CyQuant, listed as TA-04812-1) was “little to no effect”.

For Poly(I:C), the “luminescence of other tissues (spleen, lungs, kidney, liver)” value ([1]; 83-weeks old mice) was “no significant effects”, the “reduction in luminescence from visceral adipose tissue” value ([1]; 83-weeks old mice, IVIS of organs) was roughly 4 fold and the “luciferase activity from isolated stromal vascular fraction vs saline” value ([1]; per cell or per gram of fat) was “significantly decreased”.

In the case of `CCOC(=O)c1sc(SCc2ccccc2)c2c1CC(c1ccc(OC)cc1)C/C2=N\O` (stereo not shown) [Example A1.1], the IC50 ([2]; light or radiation study, mLF, senescence induction: Irradiation, read-out: Activity against Senescent Cells (IC50; uM)) is reported as 4 µM, the IC50 ([2]; mLF proliferating, read-out: Activity against Proliferating Cells (IC50; uM)) is reported as 10.6 µM and the IC50 ([2]; mLF, senescence induction: Bleomycin, read-out: Activity against Senescent Cells (IC50; uM)) is reported as 7.1 µM. For the same molecule, the “Selectivity (Prolif/Sen)” value ([2]; mLF, Bleomycin) was 1.5, the “Selectivity (Prolif/Sen)” value ([2]; mLF, Irradiation) was 2.7 and the IC50 ([3]; light or radiation study, mSQ, senescence induction: Irradiation, read-out: Activity against Senescent Cells (IC50; uM)) was 9.9 µM. For the same molecule, the IC50 ([3]; mSQ proliferating, read-out: Activity against Proliferating Cells (IC50; uM)) was 14.7 µM, the IC50 ([3]; mSQ, senescence induction: Bleomycin, read-out: Activity against Senescent Cells (IC50; uM)) was 6.7 µM and the “Selectivity (Prolif/Sen)” value ([3]; mSQ, Bleomycin) was 2.2. For the same molecule, the “Selectivity (Prolif/Sen)” value ([3]; mSQ, Irradiation) was 1.5, the “sensitivity of senescent vs acutely damaged or proliferating NDF cells” value ([4]; 1.875-30 μM, 72 hours, bleomycin or 15 Gy senescent vs 4 Gy acutely damaged) was “greater sensitivity” and the IC50 ([4]; NDF proliferating, read-out: Activity against Proliferating Cells (IC50; uM)) was 18.7 µM. The IC50 ([4]; NDF, senescence induction: Bleomycin, read-out: Activity against Senescent Cells (IC50; uM)) was 3.5 µM, the IC50 ([4]; NDF, senescence induction: Busulfan, read-out: Activity against Senescent Cells (IC50; uM)) was 3.6 µM and the IC50 ([4]; NDF, senescence induction: Doxorubicin, read-out: Activity against Senescent Cells (IC50; uM)) was 5.1 µM. The IC50 ([4]; NDF, senescence induction: Etoposide, read-out: Activity against Senescent Cells (IC50; uM)) was 3.8 µM, the IC50 ([4]; NDF, senescence induction: H2O2, read-out: Activity against Senescent Cells (IC50; uM)) was 3.2 µM and the IC50 ([4]; NDF, senescence induction: H-Ras, read-out: Activity against Senescent Cells (IC50; uM)) was 8.9 µM. The IC50 ([4]; NDF, senescence induction: Replicative (late passage), read-out: Activity against Senescent Cells (IC50; uM)) was 10.5 µM, the IC50 ([4]; light or radiation study, NDF, senescence induction: Irradiation, read-out: Activity against Senescent Cells (IC50; uM)) was 6.5 µM and the “Selectivity (Prolif/Sen)” value ([4]; NDF, Busulfan) was 5.3. For the same molecule, the “Selectivity (Prolif/Sen)” value ([4]; NDF, Doxorubicin) was 3.7, the “Selectivity (Prolif/Sen)” value ([4]; NDF, Etoposide) was 4.9 and the “Selectivity (Prolif/Sen)” value ([4]; NDF, H2O2) was 5.9. For the same molecule, the “Selectivity (Prolif/Sen)” value ([4]; NDF, H-Ras) was 2.1, the “Selectivity (Prolif/Sen)” value ([4]; NDF, Replicative (late passage)) was 1.8 and the “number of viable senescent NDF cells” value ([4]; concentrations as low as 2.5 μM, doxorubicin-, bleomycin- and gamma-irradiation-induced senescence, 72 hours) was “significantly reduced”.
